Consider five compounds from US8802711B2, “TRPV1 antagonists” (AbbVie Inc., priority 2011, dated 2014).

For assay [1], the target named is T1, human TRPV1 receptor (hTRPV1) (Homo sapiens (Human), UniProt Q8NER1). The experiment in a line: Capsaicin activation assay (FLIPR intracellular Ca2+). In kind it is cell-based. The note with it: inhibition of capsaicin-induced intracellular Ca2+ increase, read-out: hTRPV1 cap IC50. The essentials: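 HEK293 cells stably expressing human TRPV1, loaded with Calcium-4 dye 90–120 min at room temperature, preincubated 3 min with compound (12-point one-third-log range) before capsaicin (200 nM as 4× solution). Peak FLIPR fluorescence minus baseline expressed as percent of 50 nM capsaicin control response.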

For assay [2], the target named is T1, human TRPV1 receptor (hTRPV1). The assay can be described thus: Acid activation assay (pH 5.0, FLIPR intracellular Ca2+). Type of assay: cell-based. To be noted: 37.5 μM antagonist, percentage of the maximal pH 5.0-induced response remaining, read-out: hTRPV1 H+ (max % remain). The essentials: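 1321N1 astrocytoma cells stably expressing homomeric hTRPV1, loaded with Calcium-4 dye 90–120 min at 25 °C. Compounds, 12-point half-log range, added 3 min before pH 5.0 DPBS/MES challenge; intracellular Ca2+ read by FLIPR fluorescence.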

The next assay deals with Sprague-Dawley rats. The experiment in a line: Rat acute capsaicin-induced flinching behavior. In kind it is in vivo. The note with it: percent reduction in number of flinching behaviors. From the text: Adult male Sprague-Dawley rats (250-300 g body weight, Charles River Laboratories, Portage, Mich.) were used. Animal handling and experimental protocols were approved by the Institutional Animal Care and Use Committee (IACUC) at Abbott Laboratories. For all surgical procedures, animals were maintained under isoflurane anesthesia (4-5% to induce, 1-3% to maintain), and the incision sites were sterilized using a 10% povidone-iodine solution prior to and after surgeries.
Rats were placed in individual observation cages. […] One hour after administration of the test compound, 2.5 μg of capsaicin in a 10 μL solution of 10% ethanol/90% hydroxypropyl-β-cyclodextrin was injected subcutaneously into the dorsal aspect of the right hind paw. The observation cage was then suspended above mirrors in order to facilitate observation. […] The number of flinching behaviors of the injured paw was recorded during the five minute observation period (Gilchrist, H. D.; Allard, B. L.; Simone, D. A.; Enhanced withdrawal responses to heat and mechanical stimuli following intraplantar injection of capsaicin in rats. Pain, 1996, 67, 179-188). The percent reduction in the number of flinching behaviors produced with oral administration of representative compounds of the present invention relative to control-treated animals (% effect) is reported in Table 3.

Setting [3] is: Table 1, HEK293 cells expressing human TRPV1.

Read-outs that look alike come from different tables or passages of the source.

The term IC50 denotes the concentration that gives 50% inhibition.

T1 sequence (Q8NER1 whole entry): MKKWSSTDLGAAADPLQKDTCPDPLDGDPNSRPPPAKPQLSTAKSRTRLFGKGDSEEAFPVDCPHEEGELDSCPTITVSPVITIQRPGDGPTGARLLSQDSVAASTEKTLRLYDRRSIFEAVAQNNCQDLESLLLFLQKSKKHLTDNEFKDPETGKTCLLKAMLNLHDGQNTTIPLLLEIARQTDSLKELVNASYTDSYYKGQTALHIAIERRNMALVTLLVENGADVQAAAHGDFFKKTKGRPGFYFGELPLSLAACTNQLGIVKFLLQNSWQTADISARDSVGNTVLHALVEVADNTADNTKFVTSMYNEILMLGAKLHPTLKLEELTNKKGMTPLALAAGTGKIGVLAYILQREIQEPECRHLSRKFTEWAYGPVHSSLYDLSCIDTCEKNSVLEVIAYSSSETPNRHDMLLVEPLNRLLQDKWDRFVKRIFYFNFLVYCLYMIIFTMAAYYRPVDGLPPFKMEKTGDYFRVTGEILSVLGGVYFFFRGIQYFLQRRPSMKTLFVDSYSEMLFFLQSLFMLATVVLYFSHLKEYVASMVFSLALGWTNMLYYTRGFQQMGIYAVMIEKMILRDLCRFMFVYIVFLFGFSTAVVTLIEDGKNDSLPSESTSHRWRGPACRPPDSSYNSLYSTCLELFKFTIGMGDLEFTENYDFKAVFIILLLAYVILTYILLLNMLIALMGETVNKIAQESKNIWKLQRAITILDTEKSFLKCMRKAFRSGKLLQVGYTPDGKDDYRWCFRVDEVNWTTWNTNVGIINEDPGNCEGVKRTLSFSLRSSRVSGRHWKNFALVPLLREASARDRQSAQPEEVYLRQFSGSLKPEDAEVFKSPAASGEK

Regarding `Cn1ncc2c(NC(=O)N[C@@H]3CC[C@H](c4ccccc4)C3)cccc21` [Example 4, 1-(1-methyl-1H-indazol-4-yl)-3-[(1R,3S)-3-phenylcyclopentyl]urea], the IC50 in assay [1] (setting [3]) is 18 nM; in assay [1] (Table 2) it was 22 nM. The remaining activity at 37.5 µM in assay [2] (Table 1) was found to be 37%; in assay [2] (Table 2), 21%.
With `Cc1cc2c(NC(=O)N[C@@H]3CC[C@H](c4ccccc4)C3)c(F)ccc2cn1` [Example 6, 1-(6-fluoro-3-methylisoquinolin-5-yl)-3-[(1R,3S)-3-phenylcyclopentyl]urea], in the assay with Sprague-Dawley rats (100 μmol/kg p.o.), the “% effect” value is listed as 88%. The IC50 in assay [1] (setting [3]) and in assay [1] (Table 2) was 4 nM in each case. Also, the remaining activity at 37.5 µM in assay [2] (Table 1) and in assay [2] (Table 2) was 62% in each case.
Regarding `O=C(Nc1cccc2[nH]ncc12)N[C@H]1CC[C@H](c2ccccc2)C1` [Example 14, 1-(1H-indazol-4-yl)-3-[(1S,3S)-3-phenylcyclopentyl]urea], in the assay on Sprague-Dawley rats (10 μmol/kg p.o.), the “% effect” value amounted to 76%. Also, the IC50 in assay [1] (setting [3]) and in assay [1] (Table 2) was 30 nM each time. Also, the remaining activity at 37.5 µM in assay [2] (Table 1) and in assay [2] (Table 2) was 36% throughout.
Turning to `O=C(Nc1cccc2[nH]ncc12)N[C@@H]1CC[C@@H](c2ccccc2)C1` [Example 21, 1-(1H-indazol-4-yl)-3-[(1R,3R)-3-phenylcyclopentyl]urea], the IC50 in assay [1] (setting [3]) and in assay [1] (Table 2) was 20 nM in each case. Also, the remaining activity at 37.5 µM in assay [2] (Table 1) and in assay [2] (Table 2) was 8% in each case.
As for `O=C(Nc1cccc2[nH]ncc12)N[C@H]1CC[C@@H](c2ccccc2)C1` [Example 28, 1-(1H-indazol-4-yl)-3-[(1S,3R)-3-phenylcyclopentyl]urea], in the assay on Sprague-Dawley rats (10 μmol/kg p.o.), the “% effect” value is 60%. Also, the IC50 in assay [1] (setting [3]) and in assay [1] (Table 2) was 64 nM in each case. Moreover, the remaining activity at 37.5 µM in assay [2] (Table 1) and in assay [2] (Table 2) was 41% each time.
